Results published in patent publication US20260070945A1, “MACROCYCLIC IMMUNOMODULATORS” (Bristol-Myers Squibb Company, priority 2022, published 2026).
Like-named read-outs stand apart in the source and are kept apart here. Where a SMILES comes first, the peptide text is derived from it. Bridges are numbered along the chain shown (N, C = ends). [ ]: non-standard residue; d: D form. The star is where a group is joined. ξ: configuration not given here. Phe(3-CF3) = N[C@@H](Cc1cccc(C(F)(F)F)c1)C(=O)O; Phe(4-COOH) = N[C@@H](Cc1ccc(C(=O)O)cc1)C(=O)O; Bip = N[C@@H](Cc1ccc(-c2ccccc2)cc1)C(=O)O; Phe(3-Me) = Cc1cccc(C[C@H](N)C(=O)O)c1; Cha = N[C@@H](CC1CCCCC1)C(=O)O; Thr(3ξ) = CC(O)[C@H](N)C(=O)O; Carboxymethyl = O=C(O)C*; NMeA = CN[C@@H](C)C(=O)O; Orn = NCCC[C@H](N)C(=O)O; Aun = NCCCCCCCCCCC(=O)O; Dab = NCC[C@H](N)C(=O)O; AEEA = NCCOCCOCC(=O)O

Target: T1, PD-1/PD-L1 interaction (PE-labeled human PD-L1-Ig binding to Jurkat cell line over-expressing human PD-1) (Homo sapiens, UniProt Q15116)
T1 construct: expressed in transfected cells; host or cells: Jurkat
T1 sequence (Q15116 25-288): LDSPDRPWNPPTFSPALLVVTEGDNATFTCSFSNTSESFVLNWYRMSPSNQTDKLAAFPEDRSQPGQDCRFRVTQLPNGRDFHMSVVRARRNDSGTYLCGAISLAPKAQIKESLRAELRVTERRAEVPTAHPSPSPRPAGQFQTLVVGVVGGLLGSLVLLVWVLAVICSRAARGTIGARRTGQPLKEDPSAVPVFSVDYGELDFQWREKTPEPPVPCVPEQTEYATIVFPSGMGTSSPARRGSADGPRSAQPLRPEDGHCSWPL
Experiment: Jurkat-PD-1 Cell Binding High-Content Screening Assay (CBA)
Procedure, shortened: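 Binding of 20 nM (final) PE-tagged PD-L1-Ig to compound-pretreated Jurkat-hPD-1 cells was measured by high-content imaging after 1 h. Pretreatment ran 2 h at 37 °C in DMEM with 10% fetal calf serum.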

[1] = Jurkat-hPD-1 cells, PE-labeled PD-L1-Ig 20 nM final; read-out: Jurkat HPD1 PDL1 IC50
[2] = PE-labeled PD-L1-Ig 20 nM final, Jurkat-hPD-1 cells; read-out: Jurkat HPD1 PDL1 IC50

IC50 [1]	IC50 [2]	SMILES
73 nM	–	Cc1cccc(C[C@@H]2NC(=O)[C@H](CC(=O)O)NC(=O)[C@H](Cc3ccc(O)cc3)NC(=O)[C@H](Cc3ccccc3)NC(=O)CSC[C@@H](C(=O)N[C@@H](CCN)C(=O)NCCCCCCCCCCC(=O)O)NC(=O)[C@H](CCCN)NC(=O)[C@H](C(C)C)NC(=O)[C@H](CC(C)C)NC(=O)[C@H](CCN)NC(=O)[C@@H](C)NC(=O)[C@H](C)N(C)C(=O)[C@H](C(C)C)NC(=O)[C@H](Cc3ccc(-c4ccccc4)cc3)NC(=O)[C@H](CC(C)C)NC2=O)c1 [Example 2198] ({CH2CO}-FYD[Phe(3-Me)]L[Bip]V[NMeA][dA][Dab]LV[Orn]C[Dab][Aun]-OH; thioether N-14)
–	31.4 nM	CC(C)C[C@@H]1NC(=O)[C@H](Cc2c[nH]c3ccccc23)NC(=O)[C@H](CC(=O)O)NC(=O)[C@H](Cc2ccc(OCC(=O)O)cc2)NC(=O)[C@H](Cc2ccc(OCC(=O)O)cc2)NC(=O)CSC[C@@H](C(=O)NCCOCCOCC(=O)NCCCCCCCCCCC(=O)O)NC(=O)[C@H](Cc2cnc[nH]2)NC(=O)[C@H](CO)NC(=O)[C@H](CC2CCCCC2)NC(=O)[C@H](CCN)NC(=O)[C@@H](CC(C)C)NC(=O)[C@H](C)N(C)C(=O)[C@H](C(C)C)NC(=O)[C@H](Cc2ccc(-c3ccccc3)cc2)NC1=O [Example 2436] ({CH2CO}-Y(Carboxymethyl)Y(Carboxymethyl)DWL[Bip]V[NMeA][dL][Dab][Cha]SHC[AEEA][Aun]-OH; thioether N-14)
27.5 nM	–	Cc1cccc(C[C@@H]2NC(=O)[C@H](CC(=O)O)NC(=O)[C@H](Cc3ccc(OCC(=O)O)cc3)NC(=O)[C@H]([C@@H](C)O)NC(=O)CSC[C@@H](C(=O)N[C@@H](CCCN)C(=O)NCCOCCOCC(=O)NCCCCCCCCCCC(=O)O)NC(=O)[C@H]([C@@H](C)O)NC(=O)[C@H](C(C)C)NC(=O)[C@H](CC3CCCCC3)NC(=O)[C@H](CCN)NC(=O)[C@@H](CC(C)C)NC(=O)[C@H](C)N(C)C(=O)[C@H](Cc3ccc(OCC(=O)O)cc3)NC(=O)[C@H](Cc3ccc(-c4ccccc4)cc3)NC(=O)[C@H](Cc3ccc(OCC(=O)O)cc3)NC2=O)c1 [Example 1371] ({CH2CO}-TY(Carboxymethyl)D[Phe(3-Me)]Y(Carboxymethyl)[Bip]Y(Carboxymethyl)[NMeA][dL][Dab][Cha]VTC[Orn][AEEA][Aun]-OH; thioether N-14)
–	4.4 nM	CC(C)C[C@H]1NC(=O)[C@H](C)N(C)C(=O)[C@H](Cc2ccc(OCC(=O)O)cc2)NC(=O)[C@H](Cc2ccc(-c3ccccc3)cc2)NC(=O)[C@H](Cc2ccc(C(=O)O)cc2)NC(=O)[C@H](Cc2cccc(C(F)(F)F)c2)NC(=O)[C@H](CC(=O)O)NC(=O)[C@H](Cc2ccc(OCC(=O)O)cc2)NC(=O)[C@H](C(C)O)NC(=O)CSC[C@@H](C(=O)N[C@@H](CCN)C(=O)NCCCCCCCCCCC(=O)O)NC(=O)[C@H](CCC(=O)O)NC(=O)[C@H](C(C)C)NC(=O)[C@H](CC2CCCCC2)NC(=O)[C@H](CCN)NC1=O (stereo partly drawn) [Example 2574] ({CH2CO}-[Thr(3ξ)]Y(Carboxymethyl)D[Phe(3-CF3)][Phe(4-COOH)][Bip]Y(Carboxymethyl)[NMeA][dL][Dab][Cha]VEC[Dab][Aun]-OH; thioether N-14)

SMILES	IC50 [1]	IC50 [2]
CC(C)C[C@H]1NC(=O)[C@H](C)N(C)C(=O)[C@H](Cc2ccc(OCC(=O)O)cc2)NC(=O)[C@H](Cc2ccc(-c3ccccc3)cc2)NC(=O)[C@H](Cc2ccc(C(=O)O)cc2)NC(=O)[C@H](Cc2cccc(C(F)(F)F)c2)NC(=O)[C@H](CC(=O)O)NC(=O)[C@H](Cc2ccc(OCC(=O)O)cc2)NC(=O)[C@H](Cc2cnc[nH]2)NC(=O)CSC[C@@H](C(=O)N[C@@H](CCN)C(=O)NCCCCCCCCCCC(=O)O)NC(=O)[C@H](C(C)O)NC(=O)[C@H](C(C)C)NC(=O)[C@H](CC2CCCCC2)NC(=O)[C@H](CCN)NC1=O (stereo partly drawn) [Example 2580] ({CH2CO}-HY(Carboxymethyl)D[Phe(3-CF3)][Phe(4-COOH)][Bip]Y(Carboxymethyl)[NMeA][dL][Dab][Cha]V[Thr(3ξ)]C[Dab][Aun]-OH; thioether N-14)	–	6.8 nM
